Values quoted from earlier work as cited in patent US20210401707A1, “AZOXYSTROBIN IN A SULFATE FREE PERSONAL CARE COMPOSITION” (The Procter & Gamble Company, priority 2020, published 2021).

CO/C=C(/C(=O)OC)c1ccccc1Oc1cc(Oc2ccccc2C#N)ncn1 [Azoxystrobin]
solubility in water: low solubility in water
